≈ marks a conversion by molar mass, not a printed value.

What all share (experiment): ≥ marks a high value that may be exact or a test limit, other limits are often not marked, values filed in µg/mL are converted to µM
Assay [1] deals with Staphylococcus aureus ATCC 6538.
Assay [2] relates to Klebsiella pneumoniae ATCC 10031.
Assay [3] concerns Pseudomonas aeruginosa ATCC 13388.
Assay [4] has as its system Salmonella enterica subsp. enterica serovar Typhimurium ATCC 14028.
The test system of assay [5] is Escherichia coli ATCC 11219.
Assay [6] relates to Acinetobacter baumannii.
Assay [7] relates to Bacillus subtilis KCTC 1918.
Assay [8] deals with Saccharomyces cerevisiae KCTC 7296.
Assay [9] relates to Trichosporon beigelii KCTC 7707.
In assay [10] the test system is Proteus vulgaris KCTC 2433.
For assay [11], the system named is Acinetobacter baumannii KCTC 2508.
Assay [12] deals with Staphylococcus aureus KCTC 1621.
The test system of assay [13] is Candida albicans TIMM 1768.
Assay [14] deals with Salmonella typhimurium KCTC 1926.
Assay [15] relates to Enterococcus faecalis ATCC 29212.
For assay [16], the system named is Candida albicans.
In assay [17] the test system is Pseudomonas aeruginosa H103.
Assay [18] relates to Staphylococcus epidermidis.
In assay [19] the test system is Salmonella enterica serovar Typhimurium.
The test system of assay [20] is Escherichia coli UB1005.
Assay [21] deals with Staphylococcus aureus ATCC 25923.

Turning to `CC[C@H](C)[C@H](NC(=O)[C@H](C)N)C(=O)N[C@@H](Cc1cnc[nH]1)C(=O)N[C@@H](CC(=O)O)C(=O)N[C@H](C(=O)N[C@@H](CC(C)C)C(=O)N[C@@H](CCCCN)C(=O)N[C@@H](Cc1ccc(O)cc1)C(=O)NCC(=O)N[C@@H](CCCCN)C(=O)N1CCC[C@H]1C(=O)N[C@@H](CO)C(N)=O)[C@@H](C)CC` [AIHDILKYGKPS], the MIC in [1] is 10 µM (≈ 13.4 µg/mL); in assay [2], not below 50 µM; in assay [3], 10 µM (≈ 13.4 µg/mL); in assay [4] it was 3 µM (≈ 4.02 µg/mL); in [5], not below 50 µM.
For `CC[C@H](C)[C@H](NC(=O)CNC(=O)[C@H](CC(C)C)NC(=O)[C@H](CCCN=C(N)N)NC(=O)[C@H](CCCCN)NC(=O)[C@H](Cc1ccccc1)NC(=O)[C@@H](NC(=O)[C@H](CCCCN)NC(=O)[C@H](CCCCN)NC(=O)[C@H](C)N)C(C)C)C(=O)NCC(=O)N[C@@H](C)C(=O)N[C@H](C(=O)N[C@@H](CC(C)C)C(=O)N[C@@H](CCCCN)C(=O)N[C@H](C(=O)N[C@@H](CC(C)C)C(=O)N[C@H](C(=O)N[C@H](C(=O)NCC(=O)O)[C@@H](C)O)[C@@H](C)O)C(C)C)C(C)C` [AKKVFKRLGIGAVLKVLTTG], the minimal inhibitory concentration (MIC) stood at 6.25 µM (≈ 13.1 µg/mL) in assay [6]; 0.78 µM (≈ 1.64 µg/mL) in [7]; 12.5 µM (≈ 26.2 µg/mL) in [8]; 17.7 µM (≈ 37.1 µg/mL) in assay [9]; 6.25 µM (≈ 13.1 µg/mL) in [10]; 6.25 µM (≈ 13.1 µg/mL) in [11]. Besides, the values for the minimum inhibitory concentration (MIC) in assay [12], in [13] and in assay [14] were 1.56 µM (≈ 3.28 µg/mL), 12.5 µM (≈ 26.2 µg/mL) and 0.39 µM (≈ 0.819 µg/mL), respectively.
`CC[C@H](C)[C@H](NC(=O)CNC(=O)[C@H](CC(C)C)NC(=O)[C@H](CCCN=C(N)N)NC(=O)[C@H](CCCCN)NC(=O)[C@H](Cc1ccccc1)NC(=O)[C@@H](NC(=O)[C@H](CCCCN)NC(=O)[C@H](CCCCN)NC(=O)[C@H](C)N)C(C)C)C(=O)NCC(=O)N[C@@H](C)C(=O)N[C@H](C(=O)N[C@@H](CC(C)C)C(=O)N[C@@H](Cc1c[nH]c2ccccc12)C(=O)N[C@H](C(=O)N[C@@H](CC(C)C)C(=O)N[C@H](C(=O)N[C@@H](Cc1c[nH]c2ccccc12)C(=O)NCC(=O)O)[C@@H](C)O)C(C)C)C(C)C` [AKKVFKRLGIGAVLWVLTWG]: the minimum inhibitory concentration (MIC) is 6.25 µM (≈ 14 µg/mL) in assay [7]; not below 50 µM in [8]; not below 50 µM in [9]; 3.12 µM (≈ 7 µg/mL) in assay [10]; 3.12 µM (≈ 7 µg/mL) in assay [12]; not below 50 µM in [13]. In addition, in assay [14], the minimal inhibitory concentration (MIC) is 0.78 µM (≈ 1.75 µg/mL).
Regarding `CC[C@H](C)[C@H](NC(=O)CN)C(=O)N[C@@H](Cc1cnc[nH]1)C(=O)N[C@@H](CC(=O)O)C(=O)N[C@H](C(=O)N[C@@H](CC(C)C)C(=O)N[C@@H](CCCCN)C(=O)N[C@@H](C)C(=O)NCC(=O)N[C@@H](CCCCN)C(=O)N1CCC[C@H]1C(=O)N[C@@H](CO)C(N)=O)[C@@H](C)CC` [GIHDILKAGKPS], the MIC is 10 µM (≈ 12.3 µg/mL) in [1]; 20 µM (≈ 24.7 µg/mL) in assay [2]; not below 50 µM in assay [3]; more than 50 µM in assay [4]; 20 µM (≈ 24.7 µg/mL) in assay [5].
`CC[C@H](C)[C@H](NC(=O)CN)C(=O)N[C@@H](CCCN=C(N)N)C(=O)N[C@@H](CCCN=C(N)N)C(=O)N[C@H](C(=O)N[C@@H](CC(C)C)C(=O)N[C@@H](CCCN=C(N)N)C(=O)N[C@@H](Cc1ccc(O)cc1)C(=O)NCC(=O)N[C@@H](CCCN=C(N)N)C(=O)N1CCC[C@H]1C(=O)N[C@@H](CO)C(N)=O)[C@@H](C)CC` [GIRRILRYGRPS]: the minimal inhibitory concentration (MIC) in assay [1] was 5 µM (≈ 7.21 µg/mL); in assay [2], 10 µM (≈ 14.4 µg/mL); in [3] it was 10 µM (≈ 14.4 µg/mL); in assay [4], 10 µM (≈ 14.4 µg/mL); in [5], 4 µM (≈ 5.77 µg/mL).
As to `CC[C@H](C)[C@H](N)C(=O)N[C@@H](CC(C)C)C(=O)N1CCC[C@H]1C(=O)N[C@@H](Cc1c[nH]c2ccccc12)C(=O)N[C@@H](CCCCN)C(=O)N[C@@H](Cc1c[nH]c2ccccc12)C(=O)N[C@@H](CCCN=C(N)N)C(=O)N[C@@H](Cc1c[nH]c2ccccc12)C(=O)N[C@@H](Cc1c[nH]c2ccccc12)C(=O)N[C@@H](CCCCN)C(=O)N[C@@H](Cc1c[nH]c2ccccc12)C(=O)N[C@@H](CCCN=C(N)N)C(=O)N[C@@H](CCCN=C(N)N)C(=O)O` [ILPWKWRWWKWRR], the MIC in [15] stood at 2.9 µM (≈ 5.79 µg/mL); in assay [16] it was 2.9 µM (≈ 5.79 µg/mL); in assay [17] it was 5.7 µM (≈ 11.4 µg/mL); in [18], 0.7 µM (≈ 1.4 µg/mL); in assay [19], 5.7 µM (≈ 11.4 µg/mL); in [20] it was 1.4 µM (≈ 2.8 µg/mL). In addition, in assay [21], the MIC worked out at 0.7 µM (≈ 1.4 µg/mL).
For `CC[C@H](C)[C@H](NC(=O)[C@@H](NC(=O)[C@@H](N)CCCNC(=N)N)[C@@H](C)CC)C(=O)N[C@@H](CC(=O)O)C(=O)N[C@@H](CC(C)C)C(=O)N[C@@H](CC(C)C)C(=O)N[C@@H](Cc1c[nH]c2ccccc12)C(=O)N[C@@H](CCCNC(=N)N)C(=O)N[C@H](C(=O)N[C@@H](CCCNC(=N)N)C(=O)N[C@@H](CCCNC(=N)N)C(=O)N1CCC[C@H]1C(=O)N[C@@H](CCC(N)=O)C(=O)N[C@@H](Cc1c[nH]c2ccccc12)C(=O)N1CCC[C@H]1C(=O)N[C@@H](CCCCN)C(=O)N[C@@H](Cc1ccccc1)C(=O)N[C@H](C(=O)N[C@H](C(=O)N[C@H](C(=O)N[C@@H](Cc1c[nH]c2ccccc12)C(=O)N[C@H](C(=O)N[C@H](C=O)CCCNC(=N)N)C(C)C)C(C)C)[C@@H](C)O)C(C)C)C(C)C` [RIIDLLWRVRRPQWPKFVTVWVR], the minimum inhibitory concentration (MIC) in [8], in assay [9] and in assay [13] was 14.1 µM (≈ 42.5 µg/mL) each time.
Turning to `CC[C@H](C)[C@H](NC(=O)[C@H](CCCCN)NC(=O)[C@@H](NC(=O)[C@@H](NC(=O)[C@H](CCCN=C(N)N)NC(=O)[C@H](C)NC(=O)[C@H](CC(C)C)NC(=O)[C@@H](N)CCCN=C(N)N)[C@@H](C)CC)C(C)C)C(=O)N[C@@H](CCCN=C(N)N)C(=O)N[C@H](C(=O)N[C@@H](C)C(=O)N[C@@H](CCCN=C(N)N)C(N)=O)C(C)C` [RLARIVKIRVAR], the MIC was 86.2 µM (≈ 125 µg/mL) in assay [15]; 21.4 µM (≈ 31 µg/mL) in [16]; 21.4 µM (≈ 31 µg/mL) in [17]; 21.4 µM (≈ 31 µg/mL) in assay [18]; not below 43.4 µM in [19]; 11 µM (≈ 16 µg/mL) in [20]. For the same compound, the minimal inhibitory concentration (MIC) in assay [21] amounted to 86.2 µM (≈ 125 µg/mL).

Source of the values: DBAASP.
